Source: patent US20240216440A1, “STRING-LIKE AGGREGATES OF RETINAL PIGMENT EPITHELIAL CELLS, DEVICE AND PRODUCTION METHOD FOR PRODUCING SAME, AND THERAPEUTIC AGENT COMPRISING SAID STRING-LIKE AGGREGATES” (RIKEN, priority 2021, published 2024)
Entries after “also recorded” stand apart in the source; their conditions may differ.

Columns and labels:
Assay type in all cases: cell-based, human
[1] = test system: hiPSC-RPE cells (M8 line); test: Adhesion and expansion of plated string-like aggregates on uncoated 24-well plate, M8 line; conditions: for adhesion to plate and expansion of string-like aggregates: uncoated wells
Experimental: The string-like aggregates were released from the grooves of the device, and the string-like aggregates were seeded onto an uncoated 24-well plate (Corning Incorporated) containing the mix medium. After adhesion of the string-like aggregates (2 to 3 days later), the medium was replaced with RPE maintenance medium (containing bFGF and SB431542). The dishes under culture were photographed using the IncuCyte Zoom system (Essen BioScience). From the obtained image data, expanded cells were manually marked using Fiji, and the expanded area was measured. In the present inventors' preliminary experiment (FIG. 14A), higher concentrations of Y-27632 appeared to affect the texture of the string-like aggregates to become tighter. […] The string-like aggregates on day 2 (FIGS. 13D and E) and day 3 (FIGS. 13F and G) were then used to compare cell expansion after plating in uncoated wells between string-like aggregates formed with 2.5 and 10 μM Y-27632.

[2] = test system: hiPSC-RPEs (M8 line); test: String-like aggregate formation under different Y-27632 concentrations, M8 line; conditions: for appearance of string-like aggregates: day 2
Experimental: After thawing, hiPSC-RPE cells were cultured for 2 weeks, the cells were collected, and seeded in the number described in each experiment into each groove of the PDMS-based culture device, using 15 μl RPE maintenance medium containing the optimal concentration of Y-27632 (concentrations indicated for each experiment). In the present inventors' preliminary experiment (FIG. 14A), higher concentrations of Y-27632 appeared to affect the texture of the string-like aggregates to become tighter. […] Next, the present inventors directly compared string-like aggregates made with either 2.5 μM or 10 μM of Y-27632 (FIGS. 13B-G). […] On the other hand, string-like aggregates formed with 10 μM Y-27632 appeared more dense (FIG. 13B).

[3] = test system: hiPSC-RPE cells (201B7modFucci line); test: Adhesion/expansion assay of plated string-like aggregates, 201B7modFucci line
Experimental: The string-like aggregates were released from the grooves of the device, and the string-like aggregates were seeded onto an uncoated 24-well plate (Corning Incorporated) containing the mix medium. After adhesion of the string-like aggregates (2 to 3 days later), the medium was replaced with RPE maintenance medium (containing bFGF and SB431542). The dishes under culture were photographed using the IncuCyte Zoom system (Essen BioScience). From the obtained image data, expanded cells were manually marked using Fiji, and the expanded area was measured. The present inventors tested whether another hiPSC line could similarly form string-like aggregates. The present inventors used the 201B7modFucci line to induce RPE differentiation and compared it with hiPSC(M8)-RPE. hiPSC(201B7modFucci)-RPE also formed string-like aggregates like hiPSC(M8)-RPE, but the 201B7modFucci line required a Y-27632 concentration of 5 μM or higher to stably form string-like aggregates (FIG. 15-1A). The optimal Y-27632 concentration for adhesion/expansion assays was 5 μM for hiPSC(201B7modFucci)-string-like aggregates, and the optimal Y-27632 concentration for the desired adhesion/expansion effect varied depending on the cell line used and required optimization (FIGS. 14D and E). […]

SMILES: C[C@@H](N)[C@H]1CC[C@H](C(=O)Nc2ccncc2)CC1 [Y-27632]
- adhesiveness of string-like aggregates to the plate ([1]; aggregates added with 2-2.5 μM Y-27632, M8 line, day 2 aggregates, 24-well plate): highest adhesiveness to the plate
- adhesion to plate and expansion of string-like aggregates ([1]; aggregates formed with 2.5 μM Y-27632, compared with 10 μM, day 2 and day 3 aggregates): tended to attach to the plate and begin to expand early after placing; also recorded: higher adhesiveness to the plate, covered more area, and began to expand faster on the plate
- adhesion to plate and expansion of string-like aggregates ([1]; aggregates formed with 10 μM Y-27632): expansion was delayed; also recorded: tended to be coil-like and moved around for several days before settling and starting to expand
- string-like aggregate formation ([2]; M8 line, 0 and 1 μM Y-27632): not successfully formed
- Y-27632 concentration at which hiPSC-RPEs were able to form string-like aggregate shape ([2]; M8 line, tested 0, 1, 2, 2.5 and 10 μM): above 2 μM
- appearance of string-like aggregates ([2]; formed with 2.5 μM Y-27632): flat and loose
- appearance of string-like aggregates ([2]; formed with 10 μM Y-27632): more dense
- adhesiveness of string-like aggregates to the plate ([3]; aggregates added with 2-2.5 μM Y-27632, 201B7modFucci line, day 2 aggregates, 24-well plate): consistently adherent to the plate
- optimal Y-27632 concentration for adhesion/expansion assays ([3]; hiPSC(201B7modFucci)-string-like aggregates): 5 µM
